{"source": "PubChem BioAssay (NCI)", "note": "Values joined by “and” are separate entries in the source; they are usually repeats but may differ in a detail not shown here. Equal values may be shown once.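 Values below derive from 48-hour exposures of cells grown in 96-well plates, with endpoints linearly interpolated between the two concentrations bracketing the appropriate inhibition level. GI50 is the concentration that inhibits growth by half. The concentration for full growth arrest is given as TGI.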"}
{"test_system": "U251 CNS", "assay": "inhibition of tumour cell growth, NCI panel, 48 h", "units": {"GI50": "µM"}}
{"smiles": "COc1ccc(-n2cc(-c3cc(OC)c(OC)c(OC)c3)[nH]c2=O)cc1Cl", "GI50": 37.7, "TGI": "> 100 µM"}
{"smiles": "C=C(C)C1CCC2(C(=O)O)CCC3(C)C(CCC4C5(C)CCC(OC(=O)NCc6ccccc6)C(C)(C)C5CCC43C)C12", "note": "(stereo not given)", "GI50": 3.07, "TGI": "> 100 µM"}
{"smiles": "Cc1ccc(-c2cc(=O)c3cc(C)c(C)c(C(=O)O)c3o2)cc1C", "TGI": "> 100 µM"}
{"smiles": "O=C(/C=C/c1c(O)ccc2ccccc12)c1ccccc1", "TGI": "> 100 µM"}
{"smiles": "Cc1nc2ccccc2c(=O)n1-c1ccccc1F", "TGI": "> 100 µM"}
{"smiles": "Clc1ccc(-c2c(C3=NCCCN3)nnn2-c2ccc(Cl)cc2)cc1", "TGI": "> 75.8 µM"}
{"smiles": "Cc1ccc(C(=O)Nc2ccc(CN3CCN(C)CC3)c(C(F)(F)F)c2)cc1C#Cc1cnc(N)c2ccccc12", "GI50": 0.348, "TGI": "1.12 µM"}
{"smiles": "C=C1CC[C@@H]2[C@](C)(COC(C)=O)[C@H](OC(C)=O)CC[C@@]2(C)[C@@H]1CC(Nc1ccc(S(=O)(=O)Nc2ncccn2)cc1)C1=CCOC1=O", "note": "(stereo not given in full)", "GI50": 1.74, "TGI": "3.28 µM"}
{"smiles": "COc1cc2c(c(OC)c1OC)-c1c(cc3c(c1OC)OCO3)C1OC2C(C)C1C", "note": "(stereo not given) (tested in a mixture with another compound)", "TGI": "> 100 µM"}
{"smiles": "CCc1oc2ccccc2c1C(=O)c1cc(I)c(O)c(I)c1", "GI50": 4.4, "TGI": "18.3 µM"}
{"smiles": "CON(C)C(=O)N1N=C(c2cc(F)ccc2F)SC1(CCCN)c1ccccc1", "note": "(stereo not given)", "GI50": "< 0.01", "TGI": "13.4 µM and 13.7 µM"}
{"smiles": "O=C1/C(=C/c2ccc(O)cc2)CSc2ccc(Cl)cc21", "GI50": 4.21, "TGI": "15.8 µM"}
{"test_system": "SK-MEL-2 melanoma", "assay": "inhibition of tumour cell growth, NCI panel, 48 h", "units": {"GI50": "µM", "TGI": "µM"}}
{"smiles": "COc1ccc(-n2cc(-c3cc(OC)c(OC)c(OC)c3)[nH]c2=O)cc1Cl", "GI50": "> 100", "TGI": "> 100"}
{"smiles": "C=C(C)C1CCC2(C(=O)O)CCC3(C)C(CCC4C5(C)CCC(OC(=O)NCc6ccccc6)C(C)(C)C5CCC43C)C12", "note": "(stereo not given)", "GI50": 5.46, "TGI": "> 100"}
{"smiles": "Cc1ccc(-c2cc(=O)c3cc(C)c(C)c(C(=O)O)c3o2)cc1C", "TGI": "> 100"}
{"smiles": "O=C(/C=C/c1c(O)ccc2ccccc12)c1ccccc1", "TGI": "> 100"}
{"smiles": "Cc1nc2ccccc2c(=O)n1-c1ccccc1F", "TGI": "> 100"}
{"smiles": "Clc1ccc(-c2c(C3=NCCCN3)nnn2-c2ccc(Cl)cc2)cc1", "TGI": 34.6}
{"smiles": "Cc1ccc(C(=O)Nc2ccc(CN3CCN(C)CC3)c(C(F)(F)F)c2)cc1C#Cc1cnc(N)c2ccccc12", "GI50": 0.367, "TGI": 1.55}
{"smiles": "C=C1CC[C@@H]2[C@](C)(COC(C)=O)[C@H](OC(C)=O)CC[C@@]2(C)[C@@H]1CC(Nc1ccc(S(=O)(=O)Nc2ncccn2)cc1)C1=CCOC1=O", "note": "(stereo not given in full)", "GI50": 2.36, "TGI": 7.2}
{"smiles": "COc1cc2c(c(OC)c1OC)-c1c(cc3c(c1OC)OCO3)C1OC2C(C)C1C", "note": "(stereo not given) (tested in a mixture with another compound)", "TGI": "> 100"}
{"smiles": "CCc1oc2ccccc2c1C(=O)c1cc(I)c(O)c(I)c1", "GI50": 7.42, "TGI": 28}
{"smiles": "CON(C)C(=O)N1N=C(c2cc(F)ccc2F)SC1(CCCN)c1ccccc1", "note": "(stereo not given)", "GI50": "< 0.01", "TGI": 0.561}
{"smiles": "O=C1/C(=C/c2ccc(O)cc2)CSc2ccc(Cl)cc21", "GI50": 19.1, "TGI": 51.8}
{"test_system": "NCI-H460 lung", "assay": "inhibition of tumour cell growth, NCI panel, 48 h", "units": {"GI50": "µM"}}
{"smiles": "COc1ccc(-n2cc(-c3cc(OC)c(OC)c(OC)c3)[nH]c2=O)cc1Cl", "GI50": "> 100", "TGI": "> 100 µM"}
{"smiles": "C=C(C)C1CCC2(C(=O)O)CCC3(C)C(CCC4C5(C)CCC(OC(=O)NCc6ccccc6)C(C)(C)C5CCC43C)C12", "note": "(stereo not given)", "GI50": 3.14, "TGI": "16.5 µM"}
{"smiles": "Cc1ccc(-c2cc(=O)c3cc(C)c(C)c(C(=O)O)c3o2)cc1C", "TGI": "> 100 µM"}
{"smiles": "O=C(/C=C/c1c(O)ccc2ccccc12)c1ccccc1", "TGI": "> 100 µM"}
{"smiles": "Cc1nc2ccccc2c(=O)n1-c1ccccc1F", "TGI": "> 100 µM"}
{"smiles": "Clc1ccc(-c2c(C3=NCCCN3)nnn2-c2ccc(Cl)cc2)cc1", "TGI": "> 75.4 µM"}
{"smiles": "Cc1ccc(C(=O)Nc2ccc(CN3CCN(C)CC3)c(C(F)(F)F)c2)cc1C#Cc1cnc(N)c2ccccc12", "GI50": 0.32, "TGI": "1.08 µM"}
{"smiles": "C=C1CC[C@@H]2[C@](C)(COC(C)=O)[C@H](OC(C)=O)CC[C@@]2(C)[C@@H]1CC(Nc1ccc(S(=O)(=O)Nc2ncccn2)cc1)C1=CCOC1=O", "note": "(stereo not given in full)", "GI50": 1.98, "TGI": "4.06 µM"}
{"smiles": "COc1cc2c(c(OC)c1OC)-c1c(cc3c(c1OC)OCO3)C1OC2C(C)C1C", "note": "(stereo not given) (tested in a mixture with another compound)", "TGI": "> 100 µM"}
{"smiles": "CCc1oc2ccccc2c1C(=O)c1cc(I)c(O)c(I)c1", "GI50": 2.63, "TGI": "8.94 µM"}
{"smiles": "CON(C)C(=O)N1N=C(c2cc(F)ccc2F)SC1(CCCN)c1ccccc1", "note": "(stereo not given)", "GI50": "< 0.01", "TGI": "12 µM and 11.8 µM"}
{"smiles": "O=C1/C(=C/c2ccc(O)cc2)CSc2ccc(Cl)cc21", "GI50": 17.7, "TGI": "39.2 µM"}
{"test_system": "KM12 colon", "assay": "inhibition of tumour cell growth, NCI panel, 48 h"}
{"smiles": "COc1ccc(-n2cc(-c3cc(OC)c(OC)c(OC)c3)[nH]c2=O)cc1Cl", "GI50": "> 100 µM", "TGI": "> 100 µM"}
{"smiles": "C=C(C)C1CCC2(C(=O)O)CCC3(C)C(CCC4C5(C)CCC(OC(=O)NCc6ccccc6)C(C)(C)C5CCC43C)C12", "note": "(stereo not given)", "GI50": "2.23 µM", "TGI": "12.2 µM"}
{"smiles": "Cc1ccc(-c2cc(=O)c3cc(C)c(C)c(C(=O)O)c3o2)cc1C", "TGI": "> 100 µM"}
{"smiles": "O=C(/C=C/c1c(O)ccc2ccccc12)c1ccccc1", "TGI": "> 100 µM"}
{"smiles": "Cc1nc2ccccc2c(=O)n1-c1ccccc1F", "TGI": "> 100 µM"}
{"smiles": "Clc1ccc(-c2c(C3=NCCCN3)nnn2-c2ccc(Cl)cc2)cc1", "TGI": "> 77.5 µM"}
{"smiles": "Cc1ccc(C(=O)Nc2ccc(CN3CCN(C)CC3)c(C(F)(F)F)c2)cc1C#Cc1cnc(N)c2ccccc12", "GI50": "0.377 µM", "TGI": "1.08 µM"}
{"smiles": "C=C1CC[C@@H]2[C@](C)(COC(C)=O)[C@H](OC(C)=O)CC[C@@]2(C)[C@@H]1CC(Nc1ccc(S(=O)(=O)Nc2ncccn2)cc1)C1=CCOC1=O", "note": "(stereo not given in full)", "GI50": "2.33 µM", "TGI": "5.54 µM"}
{"smiles": "COc1cc2c(c(OC)c1OC)-c1c(cc3c(c1OC)OCO3)C1OC2C(C)C1C", "note": "(stereo not given) (tested in a mixture with another compound)", "TGI": "> 100 µM"}
{"smiles": "CCc1oc2ccccc2c1C(=O)c1cc(I)c(O)c(I)c1", "GI50": "1.62 µM", "TGI": "13 µM"}
{"smiles": "CON(C)C(=O)N1N=C(c2cc(F)ccc2F)SC1(CCCN)c1ccccc1", "note": "(stereo not given)", "GI50": "0.028 µM and < 0.01 µM", "TGI": "13.5 µM and 12.9 µM"}
{"smiles": "O=C1/C(=C/c2ccc(O)cc2)CSc2ccc(Cl)cc21", "GI50": "3.59 µM", "TGI": "15.7 µM"}
{"test_system": "SK-OV-3 ovarian", "assay": "inhibition of tumour cell growth, NCI panel, 48 h", "units": {"GI50": "µM"}}
{"smiles": "COc1ccc(-n2cc(-c3cc(OC)c(OC)c(OC)c3)[nH]c2=O)cc1Cl", "GI50": 31.8, "TGI": "> 100 µM"}
{"smiles": "C=C(C)C1CCC2(C(=O)O)CCC3(C)C(CCC4C5(C)CCC(OC(=O)NCc6ccccc6)C(C)(C)C5CCC43C)C12", "note": "(stereo not given)", "GI50": 27.8, "TGI": "> 100 µM"}
{"smiles": "Cc1ccc(-c2cc(=O)c3cc(C)c(C)c(C(=O)O)c3o2)cc1C", "TGI": "> 100 µM"}
{"smiles": "O=C(/C=C/c1c(O)ccc2ccccc12)c1ccccc1", "TGI": "> 100 µM"}
{"smiles": "Cc1nc2ccccc2c(=O)n1-c1ccccc1F", "TGI": "> 100 µM"}
{"smiles": "Clc1ccc(-c2c(C3=NCCCN3)nnn2-c2ccc(Cl)cc2)cc1", "TGI": "> 100 µM"}
{"smiles": "Cc1ccc(C(=O)Nc2ccc(CN3CCN(C)CC3)c(C(F)(F)F)c2)cc1C#Cc1cnc(N)c2ccccc12", "GI50": 0.684, "TGI": "7.9 µM"}
{"smiles": "C=C1CC[C@@H]2[C@](C)(COC(C)=O)[C@H](OC(C)=O)CC[C@@]2(C)[C@@H]1CC(Nc1ccc(S(=O)(=O)Nc2ncccn2)cc1)C1=CCOC1=O", "note": "(stereo not given in full)", "GI50": 6.27, "TGI": "18.3 µM"}
{"smiles": "COc1cc2c(c(OC)c1OC)-c1c(cc3c(c1OC)OCO3)C1OC2C(C)C1C", "note": "(stereo not given) (tested in a mixture with another compound)", "TGI": "> 100 µM"}
{"smiles": "CCc1oc2ccccc2c1C(=O)c1cc(I)c(O)c(I)c1", "GI50": 5.46, "TGI": "18.4 µM"}
{"smiles": "CON(C)C(=O)N1N=C(c2cc(F)ccc2F)SC1(CCCN)c1ccccc1", "note": "(stereo not given)", "GI50": "< 0.01", "TGI": "12.6 µM and 12.8 µM"}
{"smiles": "O=C1/C(=C/c2ccc(O)cc2)CSc2ccc(Cl)cc21", "GI50": 23, "TGI": "44.6 µM"}
